# According to patent publication US4617336A, “Acylated calixarene stabilizers” (Ciba-Geigy Corporation, priority 1985, dated 1986):
# What was measured:
# [1] = Oven ageing of stabilized polypropylene plaques (25 mil) at 150° C., oxidative stability
# Description: Unstabilized polypropylene powder (Hercules Profax 6501) is thoroughly blended with the indicated amount of additive. The blended materials are then milled on a two roll mill at 182° C. for 5 minutes, after which time the stabilized polypropylene is sheeted from the mill and allowed to cool. The milled polypropylene is then cut into pieces and compression molded on a hydraulic press at 220° C. and 175 psi (1.2×10^6 Pa) into 25 mil thick plaques. The plaques are then exposed to air in a force draft oven maintained at 150° C. The plaques are considered to have failed on showing the first signs of decomposition (e.g. cracking or brown edges).
# [2] = Angle to break of oven aged ABS plaques (ASTM D747); parameters: key: NB: No break; conditions: additive 0.225%
# Description: This example illustrates the stabilization of acrylonitrile-butadiene-styrene (ABS) copolymer by the compounds of this invention. The testing procedure is as follows:
# The antioxidant is dissolved in toluene and emulsified in water using Triton X-100 (Rohm & Haas) as a surfactant. The resultant emulsion is mixed well with ABS copolymer containing 40% butadiene (rubber). Steam coagulation of the emulsion/latex mixture yields 40% rubber stabilized ABS crumbs which are then dried at 80° C. for 30 minutes in a fluidized bed drier. The resultant crumbs are combined with styrene-acrylonitrile pellets on a two roll mill for six minutes. The resultant 15% rubber containing ABS milled sheet is compression molded at 400° F. into 60 mil plaques which are die cut into 1"×3" specimens. The sample plaques are then oven aged at 150° C. and the angle to break is monitored (ASTM D747). This consists of applying a set load through an angle with one stationary point and one moveable point, flexing the sample. The angle is monitored for several aging periods until the specimen breaks.
# [3] = FS/BL (fluorescent sunlight/black light) exposure of polypropylene films (5 mil); conditions: failure = 0.5 carbonyl absorbance
# From the text: The samples are exposed in a fluorescent sunlight/black light chamber until failure. Failure is taken as the hours required to reach 0.5 carbonyl absorbance by infrared spectroscopy on the exposed films.
# [4] = Solubility in hydrocarbon solvents; assay type: physicochemical; conditions: 24° to 25° C.
# Description: This example provides solubility data for the instant stabilizers in two hydrocarbon solvents. The indicated stabilizer is dissolved in the minimal amount of solvent at 24° to 25° C. The value range reported is percent by weight of additive in total weight of solution.
# [5] = Oxidation stability of polypropylene stretched tapes (2 mil) in forced draft oven at 115° C.; conditions: additive 0.2%
# Description: The oxidation stability of milled polypropylene samples (prepared as in Examples 9 and 10), containing the indicated stabilizers, is measured on stretched tapes of 2 mil thickness on exposure to air in a forced draft oven at 115° C.
# [6] = additive 0.2%, no co-stabilizer
substance,measurement,setting,value
Para-[2(carbooctadecyloxy)ethyl]hydroxycalix[n]arene [Example 4],Oxidative Stability Time to Failure,[1]; additive 0.1% with 0.3% DLTDP,340 h
same,Oxidative Stability Time to Failure,"[1]; additive 0.3%, no co-stabilizer",150 h
same,Angle to Break (Oven Aged Samples),[2]; 0 Min at 150° C.,NB
same,Angle to Break (Oven Aged Samples),[2]; 30 Min at 150° C.,NB
same,Angle to Break (Oven Aged Samples),[2]; 45 Min at 150° C.,NB
same,Angle to Break (Oven Aged Samples),[2]; 60 Min at 150° C.,NB
same,Angle to Break (Oven Aged Samples),[2]; 120 Min at 150° C.,55
same,FS/BL Test Results (Hours to Failure),[3]; additive 0.3% by weight,240 h
Para-[2-(carbododecyloxy)ethyl]hydroxycalix[n]arene [Example 3],Oxidative Stability Time to Failure,[1]; additive 0.1% with 0.3% DLTDP,420 h
same,Oxidative Stability Time to Failure,[1]; [6],150 h
same,wt/wt % Solubility in Toluene,[4],> 50 wt/wt %
same,FS/BL Test Results (Hours to Failure),[3]; additive 0.2% by weight,230 h
Para-carbobutoxy-hydroxycalix(n)arene [Example 8],Oxidative Stability Time to Failure,[1]; additive 0.1% with 0.3% DSTDP,210 h
same,Oxidative Stability Time to Failure,[1]; [6],20 h
Para-carbododecyloxyhydroxy-calix(n)arene [Example 5],Oxidative Stability Time to Failure,[1]; additive 0.1% with 0.3% DSTDP,210 h
same,Oxidative Stability Time to Failure,[1]; [6],30 h
Para-carbooctadecyloxy-hydroxycalix(n)arene [Example 7],Oxidative Stability Time to Failure,[1]; additive 0.1% with 0.3% DSTDP,250 h
same,Oxidative Stability Time to Failure,[1]; [6],30 h
same,Oxidative Stability Time to Failure,[5],290 h
